Calls of active or inactive are those of the source. No cut-off for these calls is given here.
How the values were obtained:
[1] = target: ALK tyrosine kinase receptor (Homo sapiens, UniProt Q9UM73); experiment: Inhibition of recombinant ALK (unknown origin)
[2] = target: Protein-tyrosine kinase 6 (Homo sapiens, UniProt Q13882); experiment: Inhibition of recombinant BRK (unknown origin)
[3] = target: Eukaryotic elongation factor 2 kinase (Homo sapiens, UniProt O00418); experiment: Inhibition of recombinant EEF2K (unknown origin)
Chain of Eukaryotic elongation factor 2 kinase (O00418 whole entry): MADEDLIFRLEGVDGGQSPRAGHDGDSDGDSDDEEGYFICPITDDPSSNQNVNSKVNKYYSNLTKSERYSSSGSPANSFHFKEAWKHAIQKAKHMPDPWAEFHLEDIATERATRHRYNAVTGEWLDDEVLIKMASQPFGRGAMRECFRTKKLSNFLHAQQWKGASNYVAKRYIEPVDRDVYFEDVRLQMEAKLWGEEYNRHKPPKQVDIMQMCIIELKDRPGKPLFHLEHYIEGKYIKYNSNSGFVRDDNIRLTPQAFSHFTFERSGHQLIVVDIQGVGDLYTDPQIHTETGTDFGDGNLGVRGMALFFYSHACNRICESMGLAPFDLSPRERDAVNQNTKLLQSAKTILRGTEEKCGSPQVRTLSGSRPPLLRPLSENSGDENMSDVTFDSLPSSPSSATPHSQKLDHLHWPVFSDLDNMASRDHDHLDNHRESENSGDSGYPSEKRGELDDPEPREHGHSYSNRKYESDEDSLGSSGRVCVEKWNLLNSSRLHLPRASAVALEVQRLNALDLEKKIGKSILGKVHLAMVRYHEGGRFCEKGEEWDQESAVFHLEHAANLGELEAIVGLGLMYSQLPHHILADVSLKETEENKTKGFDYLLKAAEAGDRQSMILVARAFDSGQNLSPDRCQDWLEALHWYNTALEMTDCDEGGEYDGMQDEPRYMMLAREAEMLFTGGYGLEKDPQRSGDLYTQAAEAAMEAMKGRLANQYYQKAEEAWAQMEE

[4] = target: Glycogen synthase kinase-3 beta (Homo sapiens, UniProt P49841); experiment: Inhibition of recombinant GSK3beta (unknown origin)
Chain of Glycogen synthase kinase-3 beta (P49841 whole entry): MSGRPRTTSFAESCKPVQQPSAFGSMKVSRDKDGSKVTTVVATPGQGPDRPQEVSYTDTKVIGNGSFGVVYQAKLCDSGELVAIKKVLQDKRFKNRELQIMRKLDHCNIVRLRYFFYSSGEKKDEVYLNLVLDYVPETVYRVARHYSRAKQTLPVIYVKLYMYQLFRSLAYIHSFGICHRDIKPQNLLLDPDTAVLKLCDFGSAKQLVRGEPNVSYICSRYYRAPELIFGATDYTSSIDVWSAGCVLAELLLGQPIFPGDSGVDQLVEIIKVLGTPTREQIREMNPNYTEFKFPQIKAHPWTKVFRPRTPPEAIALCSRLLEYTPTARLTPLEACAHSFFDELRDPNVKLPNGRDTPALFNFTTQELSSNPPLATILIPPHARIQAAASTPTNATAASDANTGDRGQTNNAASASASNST

[5] = target: Tyrosine-protein kinase Lyn (Homo sapiens, UniProt P07948); experiment: Inhibition of recombinant LYN (unknown origin)
[6] = target: Serine/threonine-protein kinase 26 (Homo sapiens, UniProt Q9P289); experiment: Inhibition of recombinant MST4 (unknown origin)
Chain of Serine/threonine-protein kinase 26 (Q9P289 whole entry): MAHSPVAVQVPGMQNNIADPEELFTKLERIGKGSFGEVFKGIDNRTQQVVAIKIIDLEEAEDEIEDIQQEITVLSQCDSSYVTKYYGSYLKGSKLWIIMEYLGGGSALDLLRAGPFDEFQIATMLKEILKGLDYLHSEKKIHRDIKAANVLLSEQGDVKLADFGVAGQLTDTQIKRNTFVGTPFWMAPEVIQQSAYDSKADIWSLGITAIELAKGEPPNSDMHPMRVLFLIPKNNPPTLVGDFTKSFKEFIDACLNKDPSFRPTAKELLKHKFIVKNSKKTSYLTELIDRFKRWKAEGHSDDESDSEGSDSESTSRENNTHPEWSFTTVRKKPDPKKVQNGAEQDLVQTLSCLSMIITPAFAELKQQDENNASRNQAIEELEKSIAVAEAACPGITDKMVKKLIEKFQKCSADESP

[7] = target: Serine/threonine-protein kinase Nek6 (Homo sapiens, UniProt Q9HC98); experiment: Inhibition of recombinant NEK6 (unknown origin)
Chain of Serine/threonine-protein kinase Nek6 (Q9HC98 whole entry): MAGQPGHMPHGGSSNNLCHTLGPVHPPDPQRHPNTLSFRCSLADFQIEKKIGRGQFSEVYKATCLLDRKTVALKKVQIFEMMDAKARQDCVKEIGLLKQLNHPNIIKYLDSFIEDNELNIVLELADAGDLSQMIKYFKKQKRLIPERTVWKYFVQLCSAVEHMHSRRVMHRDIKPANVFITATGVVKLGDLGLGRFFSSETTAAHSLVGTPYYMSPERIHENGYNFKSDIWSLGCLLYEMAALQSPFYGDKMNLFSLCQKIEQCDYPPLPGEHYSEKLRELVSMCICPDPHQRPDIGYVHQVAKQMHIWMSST

[8] = target: Serine/threonine-protein kinase PAK 4 (Homo sapiens, UniProt O96013); experiment: Inhibition of recombinant PAK4 (unknown origin)
Chain of Serine/threonine-protein kinase PAK 4 (O96013 whole entry): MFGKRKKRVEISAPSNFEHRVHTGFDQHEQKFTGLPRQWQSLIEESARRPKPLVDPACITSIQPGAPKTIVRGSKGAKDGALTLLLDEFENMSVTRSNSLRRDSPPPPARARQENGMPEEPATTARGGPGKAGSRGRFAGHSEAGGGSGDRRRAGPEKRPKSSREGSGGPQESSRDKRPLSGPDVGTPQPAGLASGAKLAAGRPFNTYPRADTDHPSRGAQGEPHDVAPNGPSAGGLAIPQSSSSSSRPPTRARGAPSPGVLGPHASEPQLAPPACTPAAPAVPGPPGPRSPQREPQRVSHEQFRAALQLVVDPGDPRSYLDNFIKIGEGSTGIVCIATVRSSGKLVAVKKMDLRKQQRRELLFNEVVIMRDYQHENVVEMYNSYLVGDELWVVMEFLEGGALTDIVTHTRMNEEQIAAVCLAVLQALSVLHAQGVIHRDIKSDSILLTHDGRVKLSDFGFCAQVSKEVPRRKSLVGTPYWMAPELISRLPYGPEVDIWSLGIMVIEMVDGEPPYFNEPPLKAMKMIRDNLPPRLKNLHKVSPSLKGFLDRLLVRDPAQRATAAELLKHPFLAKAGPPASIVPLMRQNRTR

[9] = target: Serine/threonine-protein kinase PLK1 (Homo sapiens, UniProt P53350); experiment: Inhibition of recombinant PLK1 (unknown origin)
Chain of Serine/threonine-protein kinase PLK1 (P53350 whole entry): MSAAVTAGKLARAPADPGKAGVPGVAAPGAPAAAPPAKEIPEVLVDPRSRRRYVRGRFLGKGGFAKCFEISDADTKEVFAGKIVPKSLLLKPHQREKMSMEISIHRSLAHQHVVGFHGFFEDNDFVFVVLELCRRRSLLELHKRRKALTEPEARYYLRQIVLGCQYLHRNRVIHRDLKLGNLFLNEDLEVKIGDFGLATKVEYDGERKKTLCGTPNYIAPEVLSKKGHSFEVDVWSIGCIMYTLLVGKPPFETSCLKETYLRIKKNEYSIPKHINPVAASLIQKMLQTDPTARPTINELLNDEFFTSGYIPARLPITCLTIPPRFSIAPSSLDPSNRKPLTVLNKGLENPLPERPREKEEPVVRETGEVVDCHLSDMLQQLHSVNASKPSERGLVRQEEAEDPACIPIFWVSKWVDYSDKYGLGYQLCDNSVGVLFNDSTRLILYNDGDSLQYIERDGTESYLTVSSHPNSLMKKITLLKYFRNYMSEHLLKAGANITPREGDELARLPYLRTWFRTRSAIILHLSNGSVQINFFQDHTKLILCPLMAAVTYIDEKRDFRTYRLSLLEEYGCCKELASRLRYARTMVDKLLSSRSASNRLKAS

[10] = Inhibition of recombinant SULU1 (unknown origin); parameters: species or system Homo sapiens
[11] = target: Tyrosine-protein kinase ZAP-70 (Homo sapiens, UniProt P43403); experiment: Inhibition of recombinant ZAP70 (unknown origin)
HT1197 = experiment: Antiproliferative activity against human HT1197 cells assessed as inhibition of cell growth incubated for 72 hrs by celltiter-glo assay; assay type: functional, cell-based; details: HT1197, 72 h
MDA-MB-231 = experiment: Antiproliferative activity against human MDA-MB-231 cells assessed as inhibition of cell growth incubated for 72 hrs by celltiter-glo assay; assay type: functional, cell-based; details: MDA-MB-231, 72 h
MDA-MB-435 = experiment: Antiproliferative activity against human MDA-MB-435 cells assessed as inhibition of cell growth incubated for 72 hrs by celltiter-glo assay; assay type: functional, cell-based; details: MDA-MB-435, 72 h
Hs-578T = experiment: Antiproliferative activity against human Hs-578T cells assessed as inhibition of cell growth incubated for 72 hrs by celltiter-glo assay; assay type: functional, cell-based
HCT-15 = experiment: Antiproliferative activity against human HCT-15 cells assessed as inhibition of cell growth incubated for 72 hrs by celltiter-glo assay; assay type: functional, cell-based; details: HCT-15, 72 h
SW-403 = experiment: Antiproliferative activity against human SW403 cells assessed as inhibition of cell growth incubated for 72 hrs by celltiter-glo assay; assay type: functional, cell-based; details: SW-403, 72 h
HCT-116 = experiment: Antiproliferative activity against human HCT-116 cells assessed as inhibition of cell growth incubated for 72 hrs by celltiter-glo assay; assay type: functional, cell-based; details: HCT-116, 72 h
HT-29 = experiment: Antiproliferative activity against human HT-29 cells assessed as inhibition of cell growth incubated for 72 hrs by celltiter-glo assay; assay type: functional, cell-based; details: HT-29, 72 h
T98G = experiment: Antiproliferative activity against human T98G cells assessed as inhibition of cell growth incubated for 72 hrs by celltiter-glo assay; assay type: functional, cell-based
MOLM-13 = experiment: Antiproliferative activity against human MOLM-13 cells assessed as inhibition of cell growth incubated for 72 hrs by celltiter-glo assay; assay type: functional, cell-based; details: MOLM-13, 72 h
NCI-H322M = experiment: Antiproliferative activity against human NCI-H322M cells assessed as inhibition of cell growth incubated for 72 hrs by celltiter-glo assay; assay type: functional, cell-based
NCI-H146 = experiment: Antiproliferative activity against human NCI-H146 cells assessed as inhibition of cell growth incubated for 72 hrs by celltiter-glo assay; assay type: functional, cell-based; details: NCI-H146, 72 h
NCI-H1975 = experiment: Antiproliferative activity against human NCI-H1975 cells assessed as inhibition of cell growth incubated for 72 hrs by celltiter-glo assay; assay type: functional, cell-based; details: NCI-H1975, 72 h
SU-DHL10 = experiment: Antiproliferative activity against human SU-DHL-10 cells assessed as inhibition of cell growth incubated for 72 hrs by celltiter-glo assay; assay type: functional, cell-based; details: SU-DHL10, 72 h
UACC-257 = experiment: Antiproliferative activity against human UACC-257 cells assessed as inhibition of cell growth incubated for 72 hrs by celltiter-glo assay; assay type: functional, cell-based; details: UACC-257, 72 h
LP-1 = experiment: Antiproliferative activity against human LP-1 cells assessed as inhibition of cell growth incubated for 72 hrs by celltiter-glo assay; assay type: functional, cell-based; details: LP-1, 72 h
IGROV-1 = experiment: Antiproliferative activity against human IGROV-1 cells assessed as inhibition of cell growth incubated for 72 hrs by celltiter-glo assay; assay type: functional, cell-based; details: IGROV-1, 72 h
U2OS [12] = experiment: Induction of mitotic arrest in human U2OS cells expressing YFP-alpha-tubulin assessed as reduction in mitotic-phase length at 1 micromol/L by time-lapse microscopic analysis; assay type: functional, cell-based; details: dose 1.0 µmol/L
U2OS [13] = experiment: Induction of mitotic arrest in human U2OS cells expressing YFP-alpha-tubulin assessed as mitotic index at 1 micromol/L in presence of MG132 by time-lapse microscopic analysis; assay type: functional, cell-based; details: dose 1.0 µmol/L
HeLa [14] = experiment: Induction of mitotic arrest in human nocodazole-arrested HeLa cells assessed as delocalization of MAD2 at 1 micromol/L in presence of MG132; assay type: functional, cell-based; details: dose 1.0 µmol/L
HeLa [15] = experiment: Induction of mitotic arrest in human nocodazole-arrested HeLa cells assessed as delocalization of BUB3 at 1 micromol/L in presence of MG132; assay type: functional, cell-based; details: dose 1.0 µmol/L
HeLa [16] = experiment: Induction of mitotic arrest in human nocodazole-arrested HeLa cells assessed as delocalization of borealin at 1 micromol/L in presence of MG132; assay type: functional, cell-based; details: dose 1.0 µmol/L
HeLa [17] = experiment: Effect on CENPB level in human nocodazole-arrested HeLa cells at 1 micromol/L in presence of MG132; assay type: functional, cell-based; details: dose 1.0 µmol/L
HeLa [18] = experiment: Effect on HEC1 level in human nocodazole-arrested HeLa cells at 1 micromol/L in presence of MG132; assay type: functional, cell-based; details: dose 1.0 µmol/L
A2780 [19] = experiment: Cell cycle arrest in human A2780 cells assessed as accumulation of cells at sub-G1 phase at 0.2 to 1 micromol/L incubated for 72 hrs by FACS/PI staining based flow cytometric analysis; assay type: functional; details: dose 0.2-1 µmol/L
A2780 [20] = experiment: Induction of apoptosis in human A2780 cells assessed as PARP clevage at 0.2 to 1 micromol/L incubated for 2 to 72 hrs by Western blot analysis; assay type: functional, cell-based; details: dose 0.2-1 µmol/L, time 2-72 hrs
[21] = Toxicity in Athymic nu-nu nude mouse xenografted with human A2780 cells assessed as body weight loss at 90 mg/kg, po administered once a day for 7 days; assay type: organism-based; details: in vivo, 168 h, time 7 day
U2OS [22] = experiment: Induction of mitotic arrest in human U2OS cells at 1 micromol/L incubated for 86 hrs by time-lapse microscopic analysis; assay type: functional, cell-based; details: dose 1.0 µmol/L
U2OS [23] = experiment: Inhibition of colony formation in human U2OS cells assessed as decrease in colony number incubated for 22 hrs followed by compound washout and measured after 8 days by crystal violet staining based assay; assay type: functional, cell-based
A2780 [24] = experiment: Antitumor activity against human A2780 cells xenografted in Athymic nu-nu nude mouse assessed as reduction in histone H3 phosphorylation at 100 mg/kg, po administered for 2 days and measured after 6 hrs by Western blot analysis; assay type: functional, organism-based; details: time 54.0 hrs

Chain of ALK tyrosine kinase receptor (Q9UM73 whole entry): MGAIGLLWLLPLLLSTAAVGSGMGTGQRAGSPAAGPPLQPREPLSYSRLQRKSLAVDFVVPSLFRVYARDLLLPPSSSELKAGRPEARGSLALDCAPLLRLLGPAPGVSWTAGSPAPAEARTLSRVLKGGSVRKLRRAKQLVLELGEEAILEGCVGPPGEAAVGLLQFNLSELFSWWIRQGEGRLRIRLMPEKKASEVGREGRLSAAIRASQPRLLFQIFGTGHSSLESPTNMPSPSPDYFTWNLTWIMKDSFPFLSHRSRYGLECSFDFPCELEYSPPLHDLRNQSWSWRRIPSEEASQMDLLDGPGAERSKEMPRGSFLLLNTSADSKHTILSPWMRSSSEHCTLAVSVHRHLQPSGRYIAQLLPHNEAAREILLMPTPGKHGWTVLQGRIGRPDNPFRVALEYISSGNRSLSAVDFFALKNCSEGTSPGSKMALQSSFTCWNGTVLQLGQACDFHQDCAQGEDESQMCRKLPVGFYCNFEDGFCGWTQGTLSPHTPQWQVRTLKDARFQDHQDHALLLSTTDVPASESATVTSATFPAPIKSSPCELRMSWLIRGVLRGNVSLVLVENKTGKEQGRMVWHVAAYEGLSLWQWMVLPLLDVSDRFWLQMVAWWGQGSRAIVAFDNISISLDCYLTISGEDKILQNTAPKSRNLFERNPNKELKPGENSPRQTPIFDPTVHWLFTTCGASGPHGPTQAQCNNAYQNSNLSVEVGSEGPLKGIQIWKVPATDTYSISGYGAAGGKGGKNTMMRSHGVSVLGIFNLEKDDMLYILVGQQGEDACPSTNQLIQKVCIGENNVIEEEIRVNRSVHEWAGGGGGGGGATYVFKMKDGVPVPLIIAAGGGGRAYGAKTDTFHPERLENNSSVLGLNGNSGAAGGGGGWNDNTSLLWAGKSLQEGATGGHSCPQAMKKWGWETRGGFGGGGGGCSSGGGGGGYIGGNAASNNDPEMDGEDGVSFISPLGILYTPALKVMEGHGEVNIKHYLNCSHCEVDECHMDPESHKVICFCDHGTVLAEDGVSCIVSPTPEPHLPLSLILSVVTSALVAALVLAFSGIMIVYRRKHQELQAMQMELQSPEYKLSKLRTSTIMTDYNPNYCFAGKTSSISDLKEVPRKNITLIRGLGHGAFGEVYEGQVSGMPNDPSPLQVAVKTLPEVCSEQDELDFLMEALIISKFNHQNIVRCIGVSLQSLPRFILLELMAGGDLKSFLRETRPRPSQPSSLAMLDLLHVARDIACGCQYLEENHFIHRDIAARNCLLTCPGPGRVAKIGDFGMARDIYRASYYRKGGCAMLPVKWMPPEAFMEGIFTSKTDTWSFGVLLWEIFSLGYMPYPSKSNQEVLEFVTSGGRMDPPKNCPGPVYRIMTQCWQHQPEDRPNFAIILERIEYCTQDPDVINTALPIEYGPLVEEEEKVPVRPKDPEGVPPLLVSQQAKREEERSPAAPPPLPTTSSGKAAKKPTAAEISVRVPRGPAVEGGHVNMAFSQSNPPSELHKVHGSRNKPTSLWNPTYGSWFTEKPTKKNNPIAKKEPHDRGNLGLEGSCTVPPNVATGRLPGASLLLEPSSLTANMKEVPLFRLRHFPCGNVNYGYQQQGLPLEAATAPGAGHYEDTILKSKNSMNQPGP

IC50 [1]: > 10 µM
IC50 [2]: > 10 µM
IC50 [3]: > 10 µM
IC50 [4]: > 10 µM
IC50 [5]: > 10 µM
IC50 [6]: > 10 µM
IC50 [7]: 6.02 µM
IC50 [8]: > 10 µM
IC50 [9]: > 10 µM
IC50 [10]: > 10 µM
IC50 [11]: > 10 µM
IC50 (MDA-MB-231): 0.899 µM
IC50 (MDA-MB-435): 1.96 µM
IC50 (HCT-15): 0.232 µM
IC50 (SW-403): 1.57 µM
IC50 (HCT-116): 2.04 µM
IC50 (HT-29): 3.92 µM
IC50 (MOLM-13): 1.04 µM
IC50 (NCI-H322M): 1.55 µM
IC50 (NCI-H146): 4.28 µM
IC50 (NCI-H1975): 10 µM
IC50 (SU-DHL10): 1.58 µM
Compound: CCc1cccc(CC)c1NC(=O)c1nn(C)c2c1CCc1cnc(Nc3ccc(C(=O)NC4CCN(C)CC4)cc3OC(F)(F)F)nc1-2
IC50 (HT1197): 8.3 µM
IC50 (Hs-578T): 6.64 µM
IC50 (T98G): 0.203 µM
IC50 (UACC-257): 1.87 µM
IC50 (LP-1): 3.48 µM
IC50 (IGROV-1): 1.15 µM
Activity (U2OS [12]): Active
Activity (U2OS [13]): inactive
Activity (HeLa [14]): Active
Activity (HeLa [15]): Active
Activity (HeLa [16]): Active
Activity (HeLa [17]): Active
Activity (HeLa [18]): Active
Activity (A2780 [19]): Active
Activity (A2780 [20]): Active
Activity [21]: Non-Toxic
Activity (U2OS [22]): Active
Activity (U2OS [23]): Active
Activity (A2780 [24]): Active

Source: ChEMBL document CHEMBL5705893, “Targeting the mitotic checkpoint for cancer therapy with NMS-P715, an inhibitor of MPS1 kinase” (Cancer Res, 2010)
